Like-named read-outs stand apart in the source and are kept apart here.
What was measured:
5-LOX = molecular target: T1, 5-LOX (Homo sapiens, UniProt P09917); assay: fluorescence-based enzyme assay of human 5-LOX (Table 3); type: biochemical
T1 sequence (P09917 1-674): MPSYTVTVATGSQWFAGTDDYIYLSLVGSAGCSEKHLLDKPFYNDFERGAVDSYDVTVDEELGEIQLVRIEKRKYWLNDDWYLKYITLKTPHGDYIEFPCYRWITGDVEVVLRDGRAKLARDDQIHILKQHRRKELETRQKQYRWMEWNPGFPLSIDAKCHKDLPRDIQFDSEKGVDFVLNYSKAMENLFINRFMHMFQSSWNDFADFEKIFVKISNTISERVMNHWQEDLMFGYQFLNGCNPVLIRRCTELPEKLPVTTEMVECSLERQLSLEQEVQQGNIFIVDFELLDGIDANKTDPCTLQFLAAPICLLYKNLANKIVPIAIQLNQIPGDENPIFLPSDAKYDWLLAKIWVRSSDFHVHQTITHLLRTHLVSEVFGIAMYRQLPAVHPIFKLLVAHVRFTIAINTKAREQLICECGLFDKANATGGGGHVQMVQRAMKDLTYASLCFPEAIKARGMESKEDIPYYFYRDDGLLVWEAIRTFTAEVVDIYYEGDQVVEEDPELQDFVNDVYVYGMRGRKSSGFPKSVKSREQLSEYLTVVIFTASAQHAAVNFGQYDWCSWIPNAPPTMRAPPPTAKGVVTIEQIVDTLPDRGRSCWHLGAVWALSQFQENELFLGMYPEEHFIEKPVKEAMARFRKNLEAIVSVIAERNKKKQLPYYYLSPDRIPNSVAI
Excerpt: (§1) Table 3 provides results for exemplary subject bisindole compounds on 5-LOX, 12-LOX and 15-LOX.

human 12-LOX = molecular target: T2, human 12-LOX (Homo sapiens, UniProt P18054); assay: colorimetric platelet 12-LOX activity assay (ferric oxidation of xylenol orange, human blood platelets); type: cell-based
T2 construct: ferric oxidation of xylenol orange from arachidonic acid in human blood platelets; endogenous in cells; host or cells: human blood platelets
T2 sequence (P18054 1-663): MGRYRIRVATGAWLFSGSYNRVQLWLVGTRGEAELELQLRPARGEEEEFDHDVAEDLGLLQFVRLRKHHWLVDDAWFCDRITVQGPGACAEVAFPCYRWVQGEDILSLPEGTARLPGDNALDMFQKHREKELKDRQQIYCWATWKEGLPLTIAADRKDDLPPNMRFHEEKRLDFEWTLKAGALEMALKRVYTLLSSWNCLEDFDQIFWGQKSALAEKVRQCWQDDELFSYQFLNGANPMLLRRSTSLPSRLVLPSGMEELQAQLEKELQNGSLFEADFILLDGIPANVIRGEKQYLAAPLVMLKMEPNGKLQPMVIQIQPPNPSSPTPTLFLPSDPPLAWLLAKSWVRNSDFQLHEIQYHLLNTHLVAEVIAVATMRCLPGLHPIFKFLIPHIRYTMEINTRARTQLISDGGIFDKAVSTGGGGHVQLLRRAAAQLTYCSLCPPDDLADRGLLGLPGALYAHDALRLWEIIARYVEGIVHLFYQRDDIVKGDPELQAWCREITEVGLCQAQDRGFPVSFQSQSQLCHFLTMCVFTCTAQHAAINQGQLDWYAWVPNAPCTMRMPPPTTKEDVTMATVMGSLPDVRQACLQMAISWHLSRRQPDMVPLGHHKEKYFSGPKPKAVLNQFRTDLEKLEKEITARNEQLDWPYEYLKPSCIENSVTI
Excerpt: as §1

15-LOX-2 = molecular target: T3, 15-LOX-2 (Homo sapiens, UniProt O15296); assay: in vitro 15-LOX-2 inhibition (Table 3); type: biochemical
T3 sequence (O15296 1-676): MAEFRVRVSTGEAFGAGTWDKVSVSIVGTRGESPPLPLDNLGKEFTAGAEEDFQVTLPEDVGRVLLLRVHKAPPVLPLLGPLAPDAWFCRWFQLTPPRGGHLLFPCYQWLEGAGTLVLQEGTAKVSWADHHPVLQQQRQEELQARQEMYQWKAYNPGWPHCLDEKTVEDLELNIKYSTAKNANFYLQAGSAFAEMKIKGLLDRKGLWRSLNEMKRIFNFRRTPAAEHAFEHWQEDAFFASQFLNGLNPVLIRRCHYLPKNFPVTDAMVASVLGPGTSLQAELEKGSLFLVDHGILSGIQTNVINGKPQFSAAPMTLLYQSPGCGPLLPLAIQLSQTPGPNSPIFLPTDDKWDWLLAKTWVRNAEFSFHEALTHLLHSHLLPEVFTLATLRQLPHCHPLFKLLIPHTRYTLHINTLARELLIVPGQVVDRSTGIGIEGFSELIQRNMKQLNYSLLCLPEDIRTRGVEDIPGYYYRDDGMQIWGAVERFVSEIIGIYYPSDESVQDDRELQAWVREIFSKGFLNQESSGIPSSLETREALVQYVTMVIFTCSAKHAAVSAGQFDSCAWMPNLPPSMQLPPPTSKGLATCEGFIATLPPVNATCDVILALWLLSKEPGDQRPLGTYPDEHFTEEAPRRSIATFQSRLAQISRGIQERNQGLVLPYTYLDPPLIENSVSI
Excerpt: as §1

[1] = tested on: amyloid-beta (Abeta) formation; assay: secreted Abeta40/Abeta42 ELISA in N2A-APPswe cells; type: cell-based; details: Mus musculus, 24 hours treatment
Protocol: A neuronal cell-based screening assay capable of sensitive and selective detection of secreted Aβ40 and Aβ42 was established. Mouse neuro-2A neuroblastoma (N2A) cells were co-transfected with pSV2neo selection plasmid and a human APP gene carrying the K670N/M671L Swedish mutations (APPswe) that are known to cause early-onset AD. The transfected cells were selected in G418-containing medium, and single colonies were analyzed for the expression of APPswe. The resulting stable cell line, N2A-APPswe, provides a platform for screening inhibitors that alter Aβ formation from the human APPswe gene. Levels of secreted Aβ40 and Aβ42 in the medium can be quantified by ELISA kits. Table 4 provides results for exemplary subject bisindole compounds on amyloid-beta (Abeta) formation at 5 μM after 24 hours treatment in N2A-APPswe cells.

[2] = read-out: Abeta 40 formation (% of control)
[3] = read-out: Abeta 42 formation (% of control)

Row | inhibition at 3 µM (5-LOX; 3 μM) [%] | inhibition at 3 µM (human 12-LOX; 3 μM) [%] | inhibition at 3 µM (15-LOX-2) [%] | Structure (SMILES) | activity at 5 µM [1, 2] [%] | activity at 5 µM [1, 3] [%] | further results
1 | 92 | 88 | 55 | Fc1ccc2[nH]c3c(OC[C@@H]4CCCN4)c4[nH]c5ccc(F)cc5c4cc3c2c1 |  |  | 
2 | 91 | 80 | 45 | Fc1ccc2[nH]c3c(OC[C@H]4CCCN4)c4[nH]c5ccc(F)cc5c4c(Cl)c3c2c1 |  |  | 
3 |  |  |  | Cl.Fc1ccc2[nH]c3c(OCC4CCCN4)c4[nH]c5ccc(F)cc5c4cc3c2c1 (centres unmarked) |  |  | 5-LOX % Inhibition at 3 μM (5-LOX; 3 μM): 95%; 12-LOX % Inhibition at 3 μM (human 12-LOX; 3 μM): 77%; 15-LOX-2 % Inhibition at 3 μM (15-LOX-2; 3 µM): 63%
4 | 52 | 76 | 16 | Cc1c2[nH]c3ccccc3c2cc2c1[nH]c1ccccc12 |  |  | 
5 |  |  |  | CCN(CC)CCOC(=O)c1ccc2[nH]c3c(OC)c4[nH]c5ccc(C(=O)OCCN(CC)CC)cc5c4cc3c2c1 |  |  | inhibition at 10 µM (5-LOX; 10 μM (footnote *)): 80%; inhibition at 10 µM (human 12-LOX; 10 μM (footnote *)): 12%
6 |  |  |  | Fc1ccc2[nH]c3c(OCC4CCCN4)c4[nH]c5ccc(F)cc5c4c(Cl)c3c2c1 (centres unmarked) | 86 | 62 | 
7 |  |  |  | Fc1ccc2[nH]c3c(OCCN4CC[C@H](F)C4)c4[nH]c5ccc(F)cc5c4cc3c2c1 | 75 | 35 | 
8 |  |  |  | Fc1ccc2[nH]c3c(OCC4CCCO4)c4[nH]c5ccc(F)cc5c4cc3c2c1 (centres unmarked) | 74 | 42 | 
9 |  |  |  | Fc1ccc2[nH]c3c(OCCn4cncn4)c4[nH]c5ccc(F)cc5c4cc3c2c1 | 53 | 30 | 
10 |  |  |  | COc1c2[nH]c3ccc(F)cc3c2c(N2CCOCC2)c2c1[nH]c1ccc(F)cc12 | 77 | 43 | 
11 |  |  |  | Fc1ccc2[nH]c3c(C(F)(F)F)c4[nH]c5ccc(F)cc5c4cc3c2c1 | 81 | 47 | 
12 |  |  |  | Fc1ccc2[nH]c3c(OCCN4CCCCC4)c4[nH]c5ccc(F)cc5c4cc3c2c1 | 82 | 19 | 
13 |  |  |  | Cc1nnn(CCOc2c3[nH]c4ccc(F)cc4c3cc3c2[nH]c2ccc(F)cc23)n1 | 66 | 36 | 
14 |  |  |  | Cc1nnnn1CCOc1c2[nH]c3ccc(F)cc3c2cc2c1[nH]c1ccc(F)cc12 | 66 | 36 | 
15 |  |  |  | F[C@@H]1CN[C@H](COc2c3[nH]c4ccc(Cl)cc4c3cc3c2[nH]c2ccc(Cl)cc23)C1 | 59 | 3 | 
16 |  |  |  | c1ccc2c(c1)[nH]c1c(OCCCN3CCOCC3)c3[nH]c4ccccc4c3cc12 | 95 | 25 | 
17 |  |  |  | N=C(N)NCCCOc1c2[nH]c3ccc(Cl)cc3c2cc2c1[nH]c1ccc(Cl)cc12 | 77 | 8 | 
18 | 90 | 78 | 46 | CN(C)CCOc1c2[nH]c3ccc(F)cc3c2cc2c1[nH]c1ccc(F)cc12 [drawing 7] |  |  | 
19 | 85 | 89 | 25 | Clc1ccc2[nH]c3c(OCCCn4cncn4)c4[nH]c5ccc(Cl)cc5c4cc3c2c1 [drawing 8] |  |  | 

Row | inhibition at 3 µM (5-LOX; 3 μM) [%] | inhibition at 3 µM (human 12-LOX; 3 μM) [%] | inhibition at 3 µM (15-LOX-2) [%] | Structure (SMILES) | activity at 5 µM [1, 2] [%] | activity at 5 µM [1, 3] [%] | further results
20 | 70 | 77 | 19 | Nc1nnn(CCOc2c3[nH]c4ccc(Cl)cc4c3cc3c2[nH]c2ccc(Cl)cc23)n1 [drawing 9] |  |  | 
21 | 85 | 73 | 24 | Nc1nnnn1CCOc1c2[nH]c3ccc(Cl)cc3c2cc2c1[nH]c1ccc(Cl)cc12 [drawing 10] |  |  | 
22 | 95 | 79 | 66 | N=C(N)NCCCOc1c2[nH]c3ccc(F)cc3c2cc2c1[nH]c1ccc(F)cc12 [drawing 11] |  |  | 
23 | 86 | 80 | 51 | Fc1ccc2[nH]c3c(OC4CCNC4)c4[nH]c5ccc(F)cc5c4cc3c2c1 (centres unmarked) [drawing 12] |  |  | 
24 | 79 | 79 | 43 | Clc1ccc2[nH]c3c(OCC4CCCN4)c4[nH]c5ccc(Cl)cc5c4cc3c2c1 (centres unmarked) [drawing 13] |  |  | 
25 | 94 | 78 | 61 | Fc1ccc2[nH]c3c(OCC4CCCN4)c4[nH]c5ccc(F)cc5c4cc3c2c1 (centres unmarked) [drawing 14] |  |  | 
26 | 77 | 77 | 17 | Fc1ccc2[nH]c3c(OCC4CCCN4)c4[nH]c5ccc(F)cc5c4c(C(F)(F)F)c3c2c1 (centres unmarked) [drawing 17] |  |  | 
27 |  |  |  | CN(C)CCOc1c2[nH]c3ccc(F)cc3c2cc2c1[nH]c1ccc(F)cc12 [drawing 24] | 79 | 76 | 
28 |  |  |  | Clc1ccc2[nH]c3c(OCCCn4cncn4)c4[nH]c5ccc(Cl)cc5c4cc3c2c1 [drawing 25] | 66 | 54 | 
29 |  |  |  | Nc1nnn(CCOc2c3[nH]c4ccc(Cl)cc4c3cc3c2[nH]c2ccc(Cl)cc23)n1 [drawing 26] | 86 | 75 | 
30 |  |  |  | Nc1nnnn1CCOc1c2[nH]c3ccc(Cl)cc3c2cc2c1[nH]c1ccc(Cl)cc12 [drawing 27] | 81 | 71 | 
31 |  |  |  | N=C(N)NCCCOc1c2[nH]c3ccc(F)cc3c2cc2c1[nH]c1ccc(F)cc12 [drawing 28] | 82 | 58 | 
32 |  |  |  | Fc1ccc2[nH]c3c(OC4CCNC4)c4[nH]c5ccc(F)cc5c4cc3c2c1 (centres unmarked) [drawing 29] | 71 | 9 | 
33 |  |  |  | Clc1ccc2[nH]c3c(OCC4CCCN4)c4[nH]c5ccc(Cl)cc5c4cc3c2c1 (centres unmarked) [drawing 30] | 69 | 59 | 
34 |  |  |  | Fc1ccc2[nH]c3c(OCC4CCCN4)c4[nH]c5ccc(F)cc5c4c(C(F)(F)F)c3c2c1 (centres unmarked) [drawing 32] | 89 | 69 | 
35 |  |  |  | CN(C)CCOc1c2[nH]c3ccc(F)cc3c2c(Cl)c2c1[nH]c1ccc(F)cc12 [drawing 33] | 68 | 55 | 
36 |  |  |  | Fc1ccc2[nH]c3c(OC[C@@H]4C[C@H](F)CN4)c4[nH]c5ccc(F)cc5c4cc3c2c1 [drawing 34] | 93 | 67 | 
37 |  |  |  | CCOC(=O)c1ccc2[nH]c3c(O[C@H]4CCNC4)c4[nH]c5ccc(C(=O)OCC)cc5c4cc3c2c1 [drawing 35] | 70 | 48 | 
38 |  |  |  | Fc1ccc2[nH]c3c(OCC4CCCN4)c4[nH]c5ccc(F)cc5c4cc3c2c1 (centres unmarked) [drawing 36] | 65 | 52 | 
